{"source": "patent US20150056702A1", "about": "“METHOD AND KIT FOR CULTURING STEM CELLS” (China Medical University, priority 2013, published 2015)", "format_in_all_cases": "cell-based, mouse", "key": {"iPS cells": {"tested_on": "iPS cells", "test": "Alkaline phosphatase staining of iPS cells", "settings": "72 hours, control group = 100%", "procedure": "The protocol shown in experiment A was repeated, while an iPS cell (received from Riken Research Center, Japan) was cultured at step (4).\nThe protocol shown in experiment C was repeated, while an iPS cell (received from Riken Research Center, Japan) was cultured at step (2).\nAlkaline phosphatase is a marker protein of stem cells. The activity measured by staining could be used to determine if BP can effectively maintain the self-renewal and/or pluripotency of stem cells.\nAn experimental group medium (BP5, BP10, BP20 or BP40), a LIF-containing medium (without BP) and a control group medium (without BP) were used respectively to culture ES cells in a 6-well culture dish with an initial density of 1×10^4 per well for 72 hours. The medium was removed and the cells were washed two times with PBS. Next, PBS was removed, and 1 ml of 80% ethanol was added into each well to perform the fixation at 4° C. for 2 to 24 hours. Next, ethanol was removed, and then the cells were washed one time with distilled water. The distilled water was added again to soak the cells for 2 to 3 minutes, and then be removed. Next, the cells were soaked with a Tris-HCl buffer (100 mM, pH 8.2 to 8.5) at room temperature for 5 minutes, and then, the buffer was removed. Next, a Leukocyte Alkaline Phosphatase kit (Vector) was used to perform the staining for 20 to 30 minutes, and then the Alkaline Phosphatase Substrate working solution was removed, the cells were soaked and washed by Tris-HCl buffer (100 mM, pH 8.2 to 8.5) and then be observed by a fluorescent microscope to count the number of the AP-positive clones. The undifferentiated ES cells with a higher activity show a red color, while the differentiated ES cells with a lower activity show a weak red color or are even colorless.\nBy using the above culture conditions, an experimental group medium (BP5, BP10, BP20 or BP40), a LIF-containing medium (without BP), and a control group medium (without BP) were used respectively to culture iPS cells. Then, the staining of iPS cells was performed by the steps described above. The undifferentiated iPS cells with a higher activity show a red color and the differentiated iPS cells with a lower activity show a weak red color or are even colorless."}, "IL11": {"tested_on": "IL11", "test": "Real-time PCR, cytokine gene IL11 in ES cells", "settings": "for IL11 mRNA expression level: ES cells, control group = 100%", "procedure": "(§1) An experimental group medium (BP5, BP10, BP20 or BP40) and a control group medium (without BP) were added respectively to perform the following steps. ES cells were cultured with an initial density of 1×10^4 per well in a 6-well culture dish. The medium was removed until the cells growth to be about 70 to 80% confluence, and then 1 ml TRIzol (Invitrogen) was added into each well. The cells were incubated for 5 minutes, and then was scraped by a spatula and placed into a 1.5 ml microtube to be lysed adequately. Chloroform (0.2 ml) was added into the microtubes. The mixture was shaken up and down for 15 seconds, and then incubated at room temperature for 2 to 3 minutes. Thereafter, the mixture was centrifuged at 12000 rpm at 4° C. for 15 minutes, and the supernatant was removed into another 1.5 ml microtube and isopropanol (0.5 ml) was added into the microtube with well mixing. The mixture was incubated at room temperature for 10 minutes and then centrifuged at 12000 rpm at 4° C. for 10 minutes. The supernatant was then removed. One ml of 70% ethanol containing DEPC.H2O was used to wash the remaining sediment. The sediment was centrifuged at 7500 rpm at 4° C. for 5 minutes. The supernatant was removed. The sediment was dried by vacuum suction. The dried samples were dissolved in about 0.01 to 0.02 ml of DEPC.H2O to obtain the experimental group RNA and control group RNA. Both groups were stored at −80° C.\n(§2) The OD value of RNA samples in both groups obtained from the above Experiment I were measured at a wavelength of 260 nm (RNA: OD260=1 for a 40 μg/mL solution). Each RNA sample (2 μl) was added with RNA-free water until the volume of the sample reached 10 μl. Two μl oligo (dT) (100 μg/ml) was added into each sample, and the samples were incubated at 65° C. for 5 minutes. Then, the samples were immediately placed on ice and spun down. Next, 6.5 μl of a reaction solution [4 μl of 5× buffer+1 μl of 0.1 M DTT+1 μl of RNase out+0.5 μl of SSIII (Invitrogen)] was added into each of the samples, and the samples were incubated at 50° C. for about 30 to 60 minutes and at 75° C. for 15 minutes to obtain the experimental group cDNA and control group cDNA. Both groups were stored at −80° C.\n(§3) This experiment was used to detect the expression levels of ES cell-related genes, i.e., Oct4 and Sox2, etc. First, 4 μl of the experimental group cDNA or control group cDNA was added into each well of a 96-well micro-reaction plate, and mixed with 6 μl of a reaction solution [0.5 μl of 6 μM forward primer+0.5 μl of 6 μM reverse primer+5 μl of SYBR Green PCR Master mix (Roche)], wherein the SYBR Green PCR Master mix included the reagents needed for Q-PCR, such as dNTPs, MgCl, Taq DNA polymerase and 2×SYBR® Green I solution. […] The cycle threshold (CT) values were measured. […]"}, "Jak2": {"tested_on": "Jak2", "test": "Western blot assay, Jak2 protein in ES cells", "settings": "for Jak2 Protein expression level: ES cells, control group = 100%", "from_the_text": "According to the known research at present, Jak2 and Stat3 proteins could be phosphorylated to form the active forms, and the Jak2-Stat3 signaling pathway will be activated when Jak2 and Stat3 were phosphorylated.\nAn experimental group medium (BP5 or BP10), a LIF-containing medium (without BP), and a control group medium (without BP) were used respectively to culture ES cells with an initial density of 1×10^4 per well in a 6-well culture dish. The medium was removed until the cells growth to be about 70 to 80% confluence. The proteins were extracted to conduct the Western blot assay by using rabbit anti-Jak2 antibody (Cell Signaling Technology), mouse anti-phospho-Jak2 antibody (Cell Signaling Technology), rabbit anti-Stat3 antibody (BD) and rabbit anti-phospho-Stat3 antibody (Cell Signaling Technology), to determine whether BP would affect the protein expression levels of the genes in the Jak-Stat3 signaling pathway."}, "OSM": {"tested_on": "OSM", "test": "Real-time PCR, cytokine gene OSM in ES cells", "settings": "for Osm mRNA expression level: ES cells, control group = 100%", "procedure": "as §1, §2, §3"}, "[1]": {"settings": "BP10 medium (about 10 μg BP/ml)"}, "[2]": {"settings": "BP-containing ES cell medium, result in words"}, "[3]": {"settings": "LIF-containing medium (LIF 4 ng/ml, without BP)"}, "[4]": {"settings": "LIF-containing medium (LIF 4 ng/ml)"}}}
{"compound": "CCCC=C1OC(=O)c2ccccc21", "note": "[BP, n-butylidenephthalide]", "values": [{"measurement": "AP-positive clones", "setting": "iPS cells; BP5 medium (about 5 μg BP/ml)", "value": 85, "unit": "%"}, {"measurement": "AP-positive clones", "setting": "iPS cells; [1]", "value": 128, "unit": "%"}, {"measurement": "AP-positive clones", "setting": "iPS cells; BP20 medium (about 20 μg BP/ml)", "value": 192, "unit": "%"}, {"measurement": "AP-positive clones", "setting": "iPS cells; BP40 medium (about 40 μg BP/ml)", "value": 129, "unit": "%"}, {"measurement": "IL11 mRNA expression level", "setting": "IL11; BP5 medium (about 5 μg BP/ml)", "value": 93, "unit": "%"}, {"measurement": "IL11 mRNA expression level", "setting": "IL11; [1]", "value": 191, "unit": "%"}, {"measurement": "mRNA expression level of IL-11", "setting": "IL11; [2]", "value": "significantly up-regulated"}, {"measurement": "Jak2 Protein expression level", "setting": "Jak2; BP5 medium (about 5 μg BP/ml)", "value": 109, "unit": "%"}, {"measurement": "Jak2 Protein expression level", "setting": "Jak2; [1]", "value": 134, "unit": "%"}, {"measurement": "total protein expression and phosphorylated protein expression level of Jak2", "setting": "Jak2; ES cell medium containing BP, result in words", "value": "increased significantly"}, {"measurement": "Osm mRNA expression level", "setting": "OSM; BP5 medium (about 5 μg BP/ml)", "value": 109, "unit": "%"}, {"measurement": "Osm mRNA expression level", "setting": "OSM; [1]", "value": 246, "unit": "%"}, {"measurement": "mRNA expression level of OSM", "setting": "OSM; [2]", "value": "significantly up-regulated"}]}
{"compound": "LIF: multifunctional cell factor used to maintain pluripotency of stem cells; LIF-containing medium (4 ng/ml, without BP) as comparison", "values": [{"measurement": "AP-positive clones", "setting": "iPS cells; [3]", "value": 226, "unit": "%"}, {"measurement": "IL11 mRNA expression level", "setting": "IL11; [4]", "value": 99, "unit": "%"}, {"measurement": "Jak2 Protein expression level", "setting": "Jak2; [3]", "value": 62, "unit": "%"}, {"measurement": "Osm mRNA expression level", "setting": "OSM; [4]", "value": 128, "unit": "%"}]}
